*1 amine or outer side, *2 acyl side, *3 side chain or, on linkers, in order; H or OH if unused. Where a SMILES comes first, the peptide text is derived from it. The star is where a group is joined. ACC = NC(=O)Cc1cc(=O)oc2cc(N*)ccc12; AMC = Cc1cc(=O)oc2cc(N*)ccc12; Suc = O=C(CCC(=O)[*:2])[*:1]
Tests used:
[1] = target: T1, human immunoproteasome core particle (i20S) (Homo sapiens, UniProt P20618+P28062); test: Purified proteasome activity assay with fluorogenic substrates, SDS-activated i20S; assay type: biochemical
T1 construct: purchased Boston Biochem E-370
Protocol: Non-prime-side substrate specificity profiling was performed with a complete, diverse library of 160,000 fluorogenic substrates containing the general structure acetyl-P4-P3-P2-P1-(7-amino-4-carbamoylmethylcourmarin, ACC) ([Harris et al., 2000]). For each sub-library, 10 nM human i20S or c20S underwent SDS pre-activation for 1 hr at room temperature in assay buffer (20 mM Tris, pH 8.0, 0.5 mM EDTA) containing 0.03% SDS. […] Activity assays were carried out over 1 hr following two-fold sample dilution in the same 0.03% SDS-containing buffer that also contained a 250 μM final concentration of PS-SCL substrate pool. Activity was recorded in black 96-well round bottom plates (Costar, COrning, NY) using a BioTek Synergy H4 Hybrid Multi-Mode Microplate Reader set to λex = 380 nm and λem = 460 nm (gain = 63). Initial velocity in relative fluorescence units per second (RFU/s) was calculated using a linear fit of the progress curves with Gen5 software v.2.03.
Activity assays with individual fluorogenic substrates were carried out as described above for the PS-SCL assays using final concentrations of 5 nM SDS-activated i20S or c20S and 10 μM substrate except where noted below. The commercial substrates Suc-LLVY-AMC, Ac-WLA-AMC (Boston Biochem, S-330), and Ac-ANW-AMC (Boston Biochem, S-320) were used as supplied. To convert cleaved substrate RFU to free AMC or ACC dye concentration, calibration curves were prepared through total enzymatic hydrolysis of ACC- or AMC-containing peptides that had been quantified through amino acid analysis (Alphalyse, Inc.). Substrate selectivity of PA28α- and SDS-activated 20S proteasomes was compared following 1 hr pre-incubation at room temperature either in the presence of 0.03% SDS or with 12 molar equivalents of PA28α activator in the absence of SDS. For substrate selectivity assays with mixed, purified proteasomes, i20S and c20S underwent individual SDS pre-activation prior to assaying with 5 nM final concentration of pooled 20S. Proteasome ratio assays were performed with 10 μM EWFW-ACC, 30 μM iso-VQA-ACC, and 30 μM Suc-LLVY-AMC. All activity measurements were recorded on the BioTek plate reader described above using λex = 380 nm and λem = 460 nm (gain = 63) for ACC substrates and Suc-LLVY-AMC; 345 nm and λem = 445 nm (gain = 63) for Ac-WLA-AMC and Ac-ANW-AMC; and λex = 328 nm and λem = 393 nm (gain = 75) for the GEWHWPS IQ substrate. Michaelis-Menten calculations were performed using a non-linear fit in Prism v.6.0.

LMP7 / β5 = test: MOLT-4 lysate proteasome activity assay, IC50, LLVY-AMC substrate; assay type: biochemical, human; conditions: 1 hr pre-incubation, 30 μM Suc-LLVY-AMC, read-out: IC50, detection method LLVY-AMC, subunit LMP7 / β5
Protocol: Three lysates containing varied proteasome ratios (whole blood, PBMCs, and the MOLT-4 cell line) were assayed in the absence or presence of proteasome inhibitors as described above. Lysates were generated by washing cells in PBS and lysing the resulting cell pellet in a two-fold greater volume of cold lysis buffer (20 mM Tris, pH 8.0, 5 mM EDTA). Total protein concentration was determined using the BCA Protein Assay Kit (Thermo Scientific Pierce) with bovine serum albumin (BSA) as the protein standard. […] Activity assays were carried out over 1 hr following two-fold sample dilution in the same assay buffer containing final concentrations of 10 μM NH2-EWFW-ACC, 30 μM iso-VQA-ACC, or 30 μM Suc-LLVY-AMC. Activity measurements were recorded on the BioTek plate reader described above in 384-well plates using either λex = 380 nm and λem = 460 nm (gain = 85) for the ACC substrates or λex = 345 nm and λem = 445 nm (gain = 85) for the AMC substrate.

β5 = target: T2, β5 (Homo sapiens, UniProt P20618+P28074); test: MOLT-4 lysate proteasome activity assay, IC50, iso-VQA-ACC substrate; assay type: biochemical; conditions: commercial β5 substrate
T2 construct: For IC50 measurements with the MOLT-4 lysate; endogenous in cells; host or cells: MOLT-4 lysate
Protocol: Three lysates containing varied proteasome ratios (whole blood, PBMCs, and the MOLT-4 cell line) were assayed in the absence or presence of proteasome inhibitors as described above. Lysates were generated by washing cells in PBS and lysing the resulting cell pellet in a two-fold greater volume of cold lysis buffer (20 mM Tris, pH 8.0, 5 mM EDTA). Total protein concentration was determined using the BCA Protein Assay Kit (Thermo Scientific Pierce) with bovine serum albumin (BSA) as the protein standard.

SUP-B15 cell line [2] = test: Ubiquitin western blot after one-hour inhibitor pulse treatment; assay type: cell-based, human; conditions: ONX 0914 200 nM or PR-825 100 or 125 nM
Protocol: (§1) SUP-B15 and MOLT-4 cells were seeded at 2 × 10^6/mL in RPMI media containing 10% FBS 24 hr prior to inhibition assays; PBMC vials were thawed and seeded at 4.4 × 10^6/mL in RPMI media with 10% FBS 3 hr prior to inhibition assays. Cells were diluted 2-fold with serum-free RPMI media containing 2X inhibitor or vehicle control (0.5% DMSO and 5% FBS final). Inhibitor treatments were carried out for 1 hr at 37°C, and to remove unbound inhibitor, cells were immediately washed three times (SUP-B15 and PBMCs) or six times (MOLT-4) with D-PBS for 1 hr time points or RPMI media containing 5% FBS for subsequent time points. Cells were incubated at 37°C for the duration of the time course and washed two times in D-PBS to remove serum upon harvest. The cell pellets were flash-frozen in liquid N2 prior to storage at −80°C.
(§2) Cell pellets were thawed and incubated for 30 min on ice in non-denaturing lysis buffer (20 mM Tris, pH 8.0, 5 mM EDTA) or RIPA buffer that contained cOmplete^TM EDTA-free inhibitor cocktail (Roche, Pleasanton, CA). Total protein concentration in supernatants was determined using a Bradford Protein Assay Kit (Thermo Scientific Pierce) or BCA Protein Assay Kit (Cell Signaling Technology), respectively, with BSA as the protein standard. Lysate activity assays were performed following 2-fold dilution of 0.1–0.4 mg/mL lysate into assay buffer as described above. […]

SUP-B15 cell line [3] = test: Cellular proteasome inhibition and recovery assay, SUP-B15; assay type: cell-based, human; conditions: SUP-B15, one-hour pulse, 24 hr time course
Protocol: as §1, §2

primary human PBMCs = test: Cellular proteasome inhibition and recovery assay, PBMCs; assay type: cell-based; conditions: primary human PBMCs from healthy donors, one-hour pulse, 24 hr
Protocol: as §1, §2

PSMB8 (LMP7) mRNA = test: qRT-PCR of PSMB8 (LMP7) mRNA after ONX 0914 pulse treatment; assay type: cell-based, human; conditions: SUP-B15, MOLT-4 and PBMCs after one-hour pulse, normalized to GAPDH
Protocol: as §1
Total RNA was extracted from cells using the RNeasy Plus Mini kit (Qiagen, Germantown, MD). The quantity and quality of RNA was confirmed by absorption measurements at 260 and 280 nm. […] Efficiencies for each primer/probe set were calculated from a serial dilution of Human Reference Total RNA (Agilent) and were >95%. Relative quantification of gene expression was calculated with the comparative cycle threshold method, normalizing for GAPDH expression levels.

Nrf1 = Nrf1 western blot after ONX 0914 pulse treatment; assay type: cell-based, human; conditions: RIPA lysates from the cell lines and PBMCs
Protocol: as §1, §2

[4] = system: rheumatoid arthritis mouse model; parameters: method as in Muchamuel et al., 2009; conditions: at a significantly lower dose than bortezomib or CFZ; ref Muchamuel et al., 2009; cited from earlier work
[5] = iP over cP, Michaelis-Menten analysis

## Cc1cc(=O)oc2cc(NC(=O)[C@H](Cc3ccc(O)cc3)NC(=O)[C@@H](NC(=O)[C@H](CC(C)C)NC(=O)[C@H](CC(C)C)NC(=O)CCC(=O)O)C(C)C)ccc12 [LLVY-AMC] (Suc-LLVY-{AMC})
[1]; iP and cP, direction not given
  selectivity at Vmax: 2.0 fold
[1]; mixed ratios of purified proteasomes, 30 μM substrate
  ability to distinguish iP and cP in defined mixtures of each proteasome: unable to distinguish between the two proteasomes

## NC(=O)Cc1cc(=O)oc2cc(NC(=O)[C@H](Cc3c[nH]c4ccccc34)NC(=O)[C@H](Cc3ccccc3)NC(=O)[C@H](Cc3c[nH]c4ccccc34)NC(=O)[C@@H](N)CCC(=O)O)ccc12 [EWFW-ACC] (H-EWFW-{ACC})
[1]; compared to the parent substrate EWHW-ACC
  improvement in Km for the iP: 7 fold
[1]
  Ratio Vmax (i20S/c20S): 16
  Ratio kcat/Km (i20S/c20S): 4.0
[1]; [5]
  selectivity at Vmax: 16 fold

## CC(=O)N[C@@H](C)C(=O)N[C@@H](CC(N)=O)C(=O)N[C@@H](Cc1c[nH]c2ccccc12)C(=O)Nc1ccc2c(C)cc(=O)oc2c1 [Ac-ANW-AMC] (Ac-Ala-Asn-Trp-{AMC})
[1]
  Ratio Vmax (i20S/c20S): 12
  Ratio kcat/Km (i20S/c20S): 6.0

## CC(C)C[C@H](NC(=O)[C@H](CCc1ccccc1)NC(=O)CN1CCOCC1)C(=O)N[C@@H](Cc1ccccc1)C(=O)N[C@@H](CC(C)C)C(=O)[C@@]1(C)CO1 [CFZ, carfilzomib]
LMP7 / β5
  IC50: 53 nM

## NC(=O)Cc1cc(=O)oc2cc(NC(=O)[C@H](Cc3c[nH]c4ccccc34)NC(=O)[C@H](Cc3c[nH]cn3)NC(=O)[C@H](Cc3c[nH]c4ccccc34)NC(=O)[C@@H](N)CCC(=O)O)ccc12 [EWHW-ACC] (H-EWHW-{ACC})
[1]
  Ratio Vmax (i20S/c20S): 6.0
  Ratio kcat/Km (i20S/c20S): 8.4
[1]; iP over cP, 10 μM substrate concentration
  iP selectivity: 4.5 fold
[1]; [5]
  selectivity at Vmax: 6 fold

## Ac-Trp-Leu-Ala-{AMC}
β5
  detection of β5 activity in MOLT-4 lysate: unable to specifically detect proteasome activity

## COc1ccc(C[C@H](NC(=O)[C@H](C)NC(=O)CN2CCOCC2)C(=O)N[C@@H](Cc2ccccc2)C(=O)[C@]2(C)CO2)cc1 [ONX 0914]
LMP7 / β5
  IC50: 256 nM
SUP-B15 cell line [2]
  global ubiquitinated protein level (immunoblot): global accumulation of ubiquitinated protein
SUP-B15 cell line [3]
  recovery of LMP7 activity after irreversible inhibition: rapid recovery
Primary human PBMCs
  recovery of LMP7 activity after irreversible inhibition: confirmed in primary human PBMCs
PSMB8 (LMP7) mRNA
  PSMB8 mRNA level: increased PSMB8 mRNA levels
Nrf1
  processed Nrf1 (p110) level (western blot): accumulation of processed Nrf1 (p110)
[4]
  disease progression: attenuate disease progression

## Cc1cc(C(=O)N[C@H](C(=O)N[C@@H](CCC(N)=O)C(=O)N[C@@H](C)C(=O)Nc2ccc3c(CC(N)=O)cc(=O)oc3c2)C(C)C)no1 [iso-VQA-ACC]
[1]
  Ratio Vmax (i20S/c20S): 0.28
  Ratio kcat/Km (i20S/c20S): 0.33

Source: paper PMC5705213, “Immunoproteasome functions explained by divergence in cleavage specificity and regulation” (eLife, 2017)
